Assay results taken from article PMC10597649, “Effect of Astragali radix extract on pharmacokinetic behavior of dapagliflozin in healthy and type 2 diabetic rats” (Frontiers in Pharmacology, 2023).
Read-outs that look alike come from different tables or passages of the source.

Experiment: Pharmacokinetics of DAPA in healthy rats (alone or co-administered with ARE), plasma by UPLC-MS/MS
Format: in vivo, Sprague Dawley (SD) rats
Settings: for MRT last: read-out: MRT(0-t)
Method: The column temperature was maintained at 40°C. […] The sample injection volume was 2 μL. […] The ion spray voltage was set at […]. […] The source temperature was kept at 200°C. The collision gas was set at low flow rate. […] The samples were processed by the procedure described above.

[1] = CD group: healthy rats, DAPA alone, single intragastric dose 1.05 mg/kg, n = 6, mean ± SD
[2] = CDA group compared to CD group (healthy rats, with ARE versus DAPA alone)
[3] = CDA group: healthy rats, ARE 300 mg/kg intragastric once a day for 7 days + DAPA single dose 1.05 mg/kg on day 7, n = 6, mean ± SD
[4] = CDA-H group: healthy rats, ARE 900 mg/kg once a day for 7 days + DAPA single dose 1.05 mg/kg on day 7, n=6, mean ± SD
[5] = CDA-L group: healthy rats, ARE 300 mg/kg once a day for 7 days + DAPA single dose 1.05 mg/kg on day 7, n=6, mean ± SD
[6] = male, Sprague-Dawley, rat, plasma, po, 1.05 mg/kg, CD group: healthy rats, DAPA alone, single intragastric dose 1.05 mg/kg, n = 6, mean ± SD
[7] = male, Sprague-Dawley, rat, plasma, po, 1.05 mg/kg, CDA-H group: healthy rats, ARE 900 mg/kg once a day for 7 days + DAPA single dose 1.05 mg/kg on day 7, n=6, mean ± SD
[8] = male, Sprague-Dawley, rat, plasma, po, 1.05 mg/kg, CDA-L group: healthy rats, ARE 300 mg/kg once a day for 7 days + DAPA single dose 1.05 mg/kg on day 7, n=6, mean ± SD
[9] = male, Sprague-Dawley, rat, plasma, po, CDA group: healthy rats, ARE 300 mg/kg intragastric once a day for 7 days + DAPA single dose 1.05 mg/kg on day 7, n = 6, mean ± SD

SMILES: CCOc1ccc(Cc2cc([C@@H]3O[C@H](CO)[C@@H](O)[C@H](O)[C@H]3O)ccc2Cl)cc1 [DAPA, Dapagliflozin]
- AUC(0-inf) [1]: 3868.26±344.05 h*(ng/mL)
- AUC(0-t) [1]: 3810.20±343.81 h*(ng/mL)
- CL [1]: 273.31±25.26 (mL/h)/kg
- V [1]: 1.42595 ± 0.16328 L/kg
- decrease of MRT [2]: 25.11%
- decrease of t max [2]: 55.91%
- increase of C max [2]: 30.99%
- AUC(0-inf) [3]: 3845.72±851.15 h*(ng/mL)
- AUC(0-t) [3]: 3783.24±852.77 h*(ng/mL)
- C max [3]: 504.33 ± 99.44 ng/mL
- CL [3]: 283.83±58.84 (mL/h)/kg
- V [3]: 1.5704 ± 0.40141 L/kg
- AUC(0-inf) [4]: 3946.77±756.89 h*(ng/mL)
- AUC(0-t) [4]: 3868.01±745.36 h*(ng/mL)
- CL [4]: 273.49±46.98 (mL/h)/kg
- V [4]: 1.55445 ± 0.21969 L/kg
- AUC(0-inf) [5]: 3845.72±851.15 h*(ng/mL)
- AUC(0-t) [5]: 3783.24±852.77 h*(ng/mL)
- CL [5]: 283.83±58.84 (mL/h)/kg
- Cmax [5]: 504.33 ± 99.44 ng/mL
- V [5]: 1.5704 ± 0.40141 L/kg
- difference of t 1/2, AUC(0-t), AUC(0-inf), V and CL (between the CD group and the CDA group (healthy rats)): no significant difference
- Tmax [6]: 5.67 ± 0.82 h
- half-life [6]: 3.61 ± 0.21 h
- Cmax (male, Sprague-Dawley, rat, plasma, po, 1.05 mg/kg, CD group: healthy rats, DAPA alone, single intragastric dose 1.05 mg/kg, n = 6, mean ± SD, read-out: C max): 385 ± 46 ng/mL
- MRT last [6]: 6.89 ± 0.28 h
- Tmax [7]: 2.61 ± 0.9 h
- half-life [7]: 3.96 ± 0.17 h
- Cmax (male, Sprague-Dawley, rat, plasma, po, 1.05 mg/kg, CDA-H group: healthy rats, ARE 900 mg/kg once a day for 7 days + DAPA single dose 1.05 mg/kg on day 7, n=6, mean ± SD, read-out: Cmax): 538 ± 123 ng/mL
- MRT last [7]: 5.04 ± 0.27 h
- Tmax [8]: 2.5 ± 1.22 h
- half-life [8]: 3.8 ± 0.22 h
- MRT last [8]: 5.16 ± 0.36 h
- Tmax [9]: 2.5 ± 1.22 h
- half-life [9]: 3.8 ± 0.22 h
- MRT last [9]: 5.16 ± 0.36 h
